The values below come from ChEMBL document CHEMBL4354847, “Congenetic Hybrids Derived from Dearomatized Isoprenylated Acylphloroglucinol with Opposite Effects on Cav3.1 Low Voltage-Gated Ca2+ Channel” (J Med Chem, 2020).

SMILES strings stand for the structures. Activity calls are given as the source filed them.

Common to all, as to type: cell-based
The target in assay [1] is T-type calcium channel alpha 1G subunit (Mus musculus) (UniProt Q27YN9). In words: Antagonist activity at mouse Cav3.1 expressed in HEK293T cells assessed as inhibition of current amplitude at 2 uM at holding potential of -100 mV in presence of hypatone-A by whole cell electrophysiological method.
T-type calcium channel alpha 1G subunit (Mus musculus), sequence (Q27YN9 as listed by the source): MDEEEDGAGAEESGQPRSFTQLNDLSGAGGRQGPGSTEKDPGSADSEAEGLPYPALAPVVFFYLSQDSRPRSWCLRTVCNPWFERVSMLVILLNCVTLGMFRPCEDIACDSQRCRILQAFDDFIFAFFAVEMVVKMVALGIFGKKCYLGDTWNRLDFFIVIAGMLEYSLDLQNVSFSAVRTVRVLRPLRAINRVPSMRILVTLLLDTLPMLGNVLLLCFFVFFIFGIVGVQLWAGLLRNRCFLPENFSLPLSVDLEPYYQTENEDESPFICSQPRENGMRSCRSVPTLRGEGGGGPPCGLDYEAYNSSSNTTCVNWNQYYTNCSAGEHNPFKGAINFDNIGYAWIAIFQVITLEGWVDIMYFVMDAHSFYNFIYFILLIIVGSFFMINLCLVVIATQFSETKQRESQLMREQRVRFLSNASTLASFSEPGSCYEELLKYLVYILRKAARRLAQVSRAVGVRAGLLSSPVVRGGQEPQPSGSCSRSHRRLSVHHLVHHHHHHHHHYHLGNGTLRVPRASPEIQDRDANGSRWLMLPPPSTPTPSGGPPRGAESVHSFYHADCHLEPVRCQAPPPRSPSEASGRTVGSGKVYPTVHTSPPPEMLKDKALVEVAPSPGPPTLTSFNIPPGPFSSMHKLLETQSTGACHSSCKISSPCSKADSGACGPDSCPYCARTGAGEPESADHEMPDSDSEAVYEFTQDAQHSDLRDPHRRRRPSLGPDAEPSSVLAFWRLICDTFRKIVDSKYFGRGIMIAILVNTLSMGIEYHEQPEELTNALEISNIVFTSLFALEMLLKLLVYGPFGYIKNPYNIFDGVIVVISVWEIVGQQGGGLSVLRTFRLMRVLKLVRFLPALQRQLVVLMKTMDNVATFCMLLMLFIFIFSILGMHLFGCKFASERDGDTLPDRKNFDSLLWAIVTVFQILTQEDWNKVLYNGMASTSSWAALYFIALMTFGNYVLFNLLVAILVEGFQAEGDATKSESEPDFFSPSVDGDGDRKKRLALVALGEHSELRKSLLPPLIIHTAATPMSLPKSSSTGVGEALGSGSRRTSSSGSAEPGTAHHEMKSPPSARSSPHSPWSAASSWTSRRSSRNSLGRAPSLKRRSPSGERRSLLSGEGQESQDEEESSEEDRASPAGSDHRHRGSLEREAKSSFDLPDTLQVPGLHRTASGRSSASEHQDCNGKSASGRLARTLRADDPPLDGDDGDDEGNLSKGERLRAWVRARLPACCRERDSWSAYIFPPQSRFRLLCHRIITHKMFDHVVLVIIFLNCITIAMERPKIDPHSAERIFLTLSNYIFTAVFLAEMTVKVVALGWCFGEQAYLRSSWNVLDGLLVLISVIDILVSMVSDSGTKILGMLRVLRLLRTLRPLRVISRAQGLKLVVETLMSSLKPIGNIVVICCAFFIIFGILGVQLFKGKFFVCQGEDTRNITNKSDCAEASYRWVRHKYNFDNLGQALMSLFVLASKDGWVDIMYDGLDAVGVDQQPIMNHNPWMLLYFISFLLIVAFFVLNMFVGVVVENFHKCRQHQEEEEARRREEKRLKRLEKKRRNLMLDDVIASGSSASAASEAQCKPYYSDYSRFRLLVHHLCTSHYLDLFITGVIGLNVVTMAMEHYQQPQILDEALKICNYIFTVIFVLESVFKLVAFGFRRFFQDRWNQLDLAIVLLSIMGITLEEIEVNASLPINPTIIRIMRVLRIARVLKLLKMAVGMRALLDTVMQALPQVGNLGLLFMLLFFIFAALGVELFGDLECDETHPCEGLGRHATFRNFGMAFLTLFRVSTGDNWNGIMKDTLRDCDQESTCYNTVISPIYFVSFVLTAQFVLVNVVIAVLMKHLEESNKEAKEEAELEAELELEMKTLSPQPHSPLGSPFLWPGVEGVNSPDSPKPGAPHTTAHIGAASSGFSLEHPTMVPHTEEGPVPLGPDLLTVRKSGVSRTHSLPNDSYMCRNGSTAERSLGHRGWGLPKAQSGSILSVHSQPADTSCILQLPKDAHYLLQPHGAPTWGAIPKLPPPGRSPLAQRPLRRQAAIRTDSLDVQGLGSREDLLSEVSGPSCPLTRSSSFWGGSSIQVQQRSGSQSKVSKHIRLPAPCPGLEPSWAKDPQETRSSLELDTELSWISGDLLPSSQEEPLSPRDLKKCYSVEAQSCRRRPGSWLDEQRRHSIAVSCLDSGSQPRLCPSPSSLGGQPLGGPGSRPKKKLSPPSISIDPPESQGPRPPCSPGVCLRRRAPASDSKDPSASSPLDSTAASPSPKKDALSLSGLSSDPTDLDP
Assay [2] has as its target T1, T-type calcium channel alpha 1G subunit (Mus musculus, UniProt Q27YN9). The assay can be described thus: (§1) Antagonist activity at mouse Cav3.1 expressed in HEK293T cells assessed as inhibition of current amplitude at holding potential of -100 mV by whole cell electrophysiological method.
The target of assay [3] is T-type calcium channel alpha 1G subunit (Mus musculus) (UniProt Q27YN9). Described as §1.
For assay [4] the target is unchanged. The assay can be described thus: Antagonist activity at mouse Cav3.1 expressed in HEK293T cells assessed as inhibition of current amplitude at 10 uM at holding potential of -100 mV incubated prior to compound washout by whole cell electrophysiological method.
Assay [5] shares this target. The assay can be described thus: Agonist activity at mouse Cav3.1 expressed in HEK293T cells assessed as half-maximal activation potential at 5 uM at holding potential of -100 mV by whole cell electrophysiological method (reference value: -44 +/- 2.8 mV).
For assay [6], the species on record is Mus musculus. The assay can be described thus: Antagonist activity at mouse Cav3.1 R1715H mutant expressed in HEK293T cells assessed as depolarization of action potential at 10 uM at holding potential of -100 mV by whole cell electrophysiological method.
The species entered for assay [7] is Mus musculus. The assay can be described thus: Agonist activity at mouse Cav3.1 R1715H mutant expressed in HEK293T cells assessed as increase in 200 ms ramp from -100 to -40 mV after 100 ms hyperpolarization of -100 mV evoked peak of low threshold Ca2+ spike at 10 uM at -60 mV holding potential by whole cell electrophysiological method relative to control.
Assay [8] has as its target T-type calcium channel alpha 1G subunit (Mus musculus) (UniProt Q27YN9). In words: Antagonist activity at mouse Cav3.1 expressed in HEK293T cells assessed as half-maximal inactivation potential at 5 uM at holding potential of -100 mV by whole cell electrophysiological method (reference value: -70.8 +/- 3 mV).
The species entered for assay [9] is Mus musculus. In words: Agonist activity at mouse Cav3.1 R1715H mutant expressed in HEK293T cells assessed as change in time constant of activation at 10 uM at holding potential of -100 mV by whole cell electrophysiological method.
For assay [10], the species on record is Mus musculus. In words: Agonist activity at mouse Cav3.1 R1715H mutant expressed in HEK293T cells assessed as shift in voltage dependence of activation at 10 uM at holding potential of -100 mV by whole cell electrophysiological method.
Assay [11] concerns the target T-type calcium channel alpha 1G subunit (Mus musculus) (UniProt Q27YN9). In words: Agonist activity at mouse Cav3.1 expressed in HEK293T cells assessed as increase in window current at 5 uM at holding potential of -100 mV by whole cell electrophysiological method.
Assay [12] has the same target. The assay can be described thus: Antagonist activity at mouse Cav3.1 expressed in HEK293T cells assessed as change in slope factor at 5 uM at holding potential of -100 mV by whole cell electrophysiological method.
Assay [13] shares this target. In words: Agonist activity at mouse Cav3.1 expressed in HEK293T cells assessed as decrease in half-maximal activation potential at 5 uM at holding potential of -100 mV incubated prior to compound washout by whole cell electrophysiological method.
Assay [14] has the same target. The assay can be described thus: Antagonist activity at mouse Cav3.1 expressed in HEK293T cells assessed as change in time constant of inactivation at 5 uM at holding potential of -100 mV by whole cell electrophysiological method.
The species entered for assay [15] is Mus musculus. In words: Agonist activity at mouse Cav3.1 R1715H mutant expressed in HEK293T cells assessed as change in half-maximal activation potential at 10 uM at holding potential of -100 mV by whole cell electrophysiological method (reference value: -38 +/- 4.3 mV).
Assay [16] has as its target T-type calcium channel alpha 1G subunit (Mus musculus) (UniProt Q27YN9). The assay can be described thus: Antagonist activity at mouse Cav3.1 expressed in HEK293T cells assessed as increase in half-maximal activation potential at 5 uM at holding potential of -100 mV incubated prior to compound washout by whole cell electrophysiological method.
Assay [17] is filed under the species Mus musculus. In words: Agonist activity at mouse Cav3.1 R1715H mutant expressed in HEK293T cells assessed as normalized window current at 10 uM at holding potential of -100 mV by whole cell electrophysiological method.
Assay [18] is filed under the species Mus musculus. In words: Antagonist activity at mouse Cav3.1 R1715H mutant expressed in HEK293T cells assessed as change in time constant of inactivation at 10 uM at holding potential of -100 mV by whole cell electrophysiological method.
The species named for assay [19] is Mus musculus. In words: Agonist activity at mouse Cav3.1 R1715H mutant expressed in HEK293T cells assessed as change in slope factor at 10 uM at holding potential of -100 mV by whole cell electrophysiological method.
The target in assay [20] is T1, T-type calcium channel alpha 1G subunit. In words: Agonist activity at mouse Cav3.1 expressed in HEK293T cells assessed as increase in current amplitude at holding potential of -100 mV by whole cell electrophysiological method.
Assay [21] has as its target T-type calcium channel alpha 1G subunit (Mus musculus) (UniProt Q27YN9). The assay can be described thus: Agonist activity at mouse Cav3.1 expressed in HEK293T cells assessed as change in time constant of activation at 5 uM at holding potential of -100 mV by whole cell electrophysiological method.
Assay [22] has the same target. The assay can be described thus: Agonist activity at mouse Cav3.1 expressed in HEK293T cells assessed as increase in current amplitude at 5 uM at holding potential of -100 mV measured after 12 to 14 secs by whole cell electrophysiological method.
Assay [23] shares this target. In words: Agonist activity at mouse Cav3.1 expressed in HEK293T cells assessed as increase in current amplitude at 300 uM at holding potential of -100 mV measured up to 150 millisecs in presence of LVGCC blocker Ni2+ by whole cell electrophysiological method.
For assay [24] the target is unchanged. The assay can be described thus: Agonist activity at mouse Cav3.1 expressed in HEK293T cells assessed as increase in current amplitude at 5 uM at holding potential of -100 mV in presence of hypatone-B by whole cell electrophysiological method.
For assay [25] the target is unchanged. In words: Agonist activity at mouse Cav3.1 expressed in HEK293T cells assessed as change in slope factor at 5 uM at holding potential of -100 mV by whole cell electrophysiological method.
Assay [26] has the same target. In words: Agonist activity at mouse Cav3.1 expressed in HEK293T cells assessed as increase in current amplitude at 3 to 30 uM at holding potential of -100 mV incubated prior to compound washout by whole cell electrophysiological method.
Assay [27] is described as follows: Agonist activity at mouse Cav3.1 R1715H mutant expressed in HEK293T cells assessed as increase in current amplitude at holding potential of -100 mV by whole cell electrophysiological method. Conditions: HEK-293T.
Assay [28] has as its target Voltage-dependent T-type calcium channel subunit alpha-1G (Homo sapiens, UniProt O43497). In words: Agonist activity at Cav3.1 (unknown origin) expressed in HEK293T cells assessed as increase in current amplitude at holding potential of -100 mV by whole cell patch-clamp electrophysiological method. (In general: The patch-clamp technique gives a direct electrical read-out from membranes.)

T1 sequence (Q27YN9 whole entry): as the sequence (Q27YN9 as listed by the source) above
Voltage-dependent T-type calcium channel subunit alpha-1G, sequence (O43497 whole entry): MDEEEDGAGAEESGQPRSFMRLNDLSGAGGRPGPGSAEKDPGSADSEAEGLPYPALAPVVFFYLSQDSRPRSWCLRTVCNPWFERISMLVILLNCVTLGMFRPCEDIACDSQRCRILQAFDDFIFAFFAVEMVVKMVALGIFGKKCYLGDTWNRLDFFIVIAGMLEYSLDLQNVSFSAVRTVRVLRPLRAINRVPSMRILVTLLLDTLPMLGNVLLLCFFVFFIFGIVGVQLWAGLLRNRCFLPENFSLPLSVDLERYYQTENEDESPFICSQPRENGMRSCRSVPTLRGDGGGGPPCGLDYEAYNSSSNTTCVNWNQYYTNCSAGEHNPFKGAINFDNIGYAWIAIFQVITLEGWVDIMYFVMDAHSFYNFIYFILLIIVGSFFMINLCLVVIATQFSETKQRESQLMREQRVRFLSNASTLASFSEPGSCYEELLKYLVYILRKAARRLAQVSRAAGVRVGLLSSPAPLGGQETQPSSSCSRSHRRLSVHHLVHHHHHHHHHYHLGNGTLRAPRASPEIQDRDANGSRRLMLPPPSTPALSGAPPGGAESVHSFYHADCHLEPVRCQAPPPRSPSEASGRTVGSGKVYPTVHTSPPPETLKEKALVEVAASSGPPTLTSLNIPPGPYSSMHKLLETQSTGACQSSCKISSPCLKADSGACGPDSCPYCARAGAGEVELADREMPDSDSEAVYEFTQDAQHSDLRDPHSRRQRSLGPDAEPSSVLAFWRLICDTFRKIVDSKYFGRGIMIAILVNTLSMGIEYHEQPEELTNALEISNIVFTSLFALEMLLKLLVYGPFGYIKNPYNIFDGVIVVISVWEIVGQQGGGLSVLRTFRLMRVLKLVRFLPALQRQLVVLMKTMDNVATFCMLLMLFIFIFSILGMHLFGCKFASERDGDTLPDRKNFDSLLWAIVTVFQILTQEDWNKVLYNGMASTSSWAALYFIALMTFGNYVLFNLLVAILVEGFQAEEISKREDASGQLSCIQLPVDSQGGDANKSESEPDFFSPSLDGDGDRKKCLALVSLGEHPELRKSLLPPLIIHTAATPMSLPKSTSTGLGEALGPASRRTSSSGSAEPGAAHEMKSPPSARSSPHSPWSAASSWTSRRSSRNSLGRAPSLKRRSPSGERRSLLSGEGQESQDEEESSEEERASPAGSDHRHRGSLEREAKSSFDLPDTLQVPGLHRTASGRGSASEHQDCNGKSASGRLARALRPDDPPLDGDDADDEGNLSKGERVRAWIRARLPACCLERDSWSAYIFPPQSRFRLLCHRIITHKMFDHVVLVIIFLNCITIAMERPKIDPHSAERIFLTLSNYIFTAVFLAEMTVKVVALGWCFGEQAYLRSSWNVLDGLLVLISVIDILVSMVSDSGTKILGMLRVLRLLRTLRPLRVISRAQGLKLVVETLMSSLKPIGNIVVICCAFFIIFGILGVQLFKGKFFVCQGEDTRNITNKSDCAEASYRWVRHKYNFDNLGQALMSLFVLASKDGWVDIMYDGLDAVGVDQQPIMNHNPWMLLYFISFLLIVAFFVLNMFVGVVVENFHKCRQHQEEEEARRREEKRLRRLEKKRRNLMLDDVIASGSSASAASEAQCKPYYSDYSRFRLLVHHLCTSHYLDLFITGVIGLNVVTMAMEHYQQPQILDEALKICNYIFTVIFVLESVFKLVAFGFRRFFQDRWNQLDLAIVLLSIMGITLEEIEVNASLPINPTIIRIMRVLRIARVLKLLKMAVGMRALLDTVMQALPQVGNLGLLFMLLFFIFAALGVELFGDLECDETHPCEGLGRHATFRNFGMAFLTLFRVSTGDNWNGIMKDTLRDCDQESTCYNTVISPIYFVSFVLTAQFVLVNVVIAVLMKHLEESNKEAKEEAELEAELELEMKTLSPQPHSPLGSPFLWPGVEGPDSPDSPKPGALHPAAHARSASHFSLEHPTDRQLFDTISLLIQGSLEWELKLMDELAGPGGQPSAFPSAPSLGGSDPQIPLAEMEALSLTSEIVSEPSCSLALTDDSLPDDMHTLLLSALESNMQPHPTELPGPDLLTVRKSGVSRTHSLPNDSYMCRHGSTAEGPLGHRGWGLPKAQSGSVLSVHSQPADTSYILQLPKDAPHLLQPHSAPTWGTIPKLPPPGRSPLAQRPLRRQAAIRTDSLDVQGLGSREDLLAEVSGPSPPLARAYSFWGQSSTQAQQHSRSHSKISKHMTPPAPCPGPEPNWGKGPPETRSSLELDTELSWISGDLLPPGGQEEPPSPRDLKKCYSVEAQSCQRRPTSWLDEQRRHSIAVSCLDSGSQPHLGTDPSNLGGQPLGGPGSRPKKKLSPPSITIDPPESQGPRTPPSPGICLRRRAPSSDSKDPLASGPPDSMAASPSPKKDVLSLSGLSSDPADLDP

Broadly, the IC50 is the concentration at which inhibition is half-maximal. For the compound `C=C(C)[C@H]1CC[C@@](C)(O)[C@@H](C2=C(O)C(CC=C(C)C)(CC=C(C)C)C(=O)C(C(=O)c3ccccc3)=C2O)C1`, the inhibition entry in assay [1] and in [4] was “Active” each time. Further, the IC50 in [2] was 2.3 µM. Besides, in assay [3], the inhibition result was “Dose-dependent effect”.
`C=C(C)[C@H]1CC[C@@](C)(O)[C@@H](C2=C(O)C(CC=C(C)C)(CC=C(C)C)C(=O)C(C(=O)C(C)C)=C2O)C1`: the IC50 in [2] amounted to 3.5 µM. In addition, in assay [3], the inhibition result was “Dose-dependent effect”. The inhibition entry in [4] was “Active”.
On the same counts, the results for `C=C(C)[C@H]1CC[C@@](C)(O)[C@@H](C2=C(O)C(CC=C(C)C)(CC=C(C)C)C(=O)C(C(=O)C(C)CC)=C2O)C1` (some centres undefined) are 0.19 µM, “Dose-dependent effect” and “Active”.
Broadly, the EC50 is the midpoint of the concentration-response curve. Consider `CC(C)=CCC1(CC=C(C)C)C(=O)C(C(=O)c2ccccc2)=C2O[C@]3(C)CC[C@H]4C[C@@H]3[C@]2(C1=O)C4(C)C`, for which the V1/2 was -47.6 mV in [5], -66.5 mV in [8] and -43.8 mV in assay [15]. Also, the result in [6], in [9], in [10], in [12], in [13] and in assay [14] was inactive. In addition, the result in assay [16], in assay [18], in assay [19], in assay [21], in assay [23] and in assay [25] was inactive. In assay [26], the result was inactive. Moreover, in [7], the Activity was determined as 26.7%. Moreover, the result in [11], in assay [17], in assay [22] and in [24] was Active. Further, the EC50 was determined as 3.8 µM in assay [20] and 9.6 µM in [27].
With `CC(C)C1=C/C(=C2\C(=O)C=C3C(C)(C)CCC[C@@]32C)OC1=O`, the EC50 in [28] came out at 12.5 µM.
